Laboratory results published in patent publication US10471054B2, “CDK1 inhibitors of acetyl chrysin mannich base derivatives, synthesis and use thereof” (priority 2016, dated 2019).
≈ marks a conversion by molar mass, not a printed value. Read-outs that look alike come from different tables or passages of the source.

Tests used:
[1] = Solubility in Octanol, water and pH media; assay type: physicochemical
Method: The solubility and log P of acetyl ChrysinMannich base derivatives see TABLE 1.
CH-j is pKa 5.3, log P 1.63 in Octanol/Water at 37° C. […] (BA-j 77m/ml). CH-j belongs to BCS II (low solubility, high permeability) and solubility presents the pH dependence. […] CH-j is a pH dependent fast release. […] It is speculated that CH-j has more appropriate log P and solubility with more likely entering tissue cells than others solubility acetyl Chrysin Mannich base derivatives.
(about 20 times BA-f 277 μg/ml) and 564 μg/ml in water at 37° C. (about 1000 times BA-f 0.53m/ml). CH-f is BCS I (high solubility and permeability) and solubility presents the pH dependence. It is speculated that CH-f has more appropriate log P and solubility with entering systemic (blood system and tissue cells) than others solubility acetyl Chrysin Mannich base derivatives.

BGC-823 and Hep G2 = test: H2O2 level in cancer cells, PF1-H2O2 fluorescent probe; assay type: cell-based; settings: BGC-823 and Hep G2, CH-j 5-10 μM
Method: (§1) The cells are cancer cells (MCF-7, GBC-823, Hep G2) and normal cells (Liver, COS-7, PBMCs). According to the literature [Scientific Reports, 2015, 5: 13626; Anti-cancer Agents in Medicinal Chemistry, 2016, 16: 914-924.], in vitro cultured cells was given to CH-j 25 μM for 3.5 h, added PF1-H2O2 selective fluorescence probe 10 μM for 0.5 h and detected the concentration of H2O2 in cells, and performed fluorescence imaging by results shown in FIG. 1.
FIG. 1-2: The effect of CH-j/BA-j to Hep G2 and BGC-382 in the levels of H2O2: in which the X-coordinate is the concentration of CH-j/BA-j concentration (μM), and Y-coordinate is the intracellular levels of H2O2 (μM) for 4 h with PF1-H2O2 10 μM by Fluorescence Microplater Reader (488 nm/525 nm).

[2] = system: PBMCs, activated lymphocytes, human normal Liver cells; test: H2O2 level in blood and normal cells, PF1-H2O2 fluorescent probe; assay type: cell-based; settings: CH-j: PBMCs and activated lymphocytes; BA-j: activated lymphocyte
Method: as §1
FIG. 1-3, FIG. 1-4, The fluorescence imaging by PF1-H2O2 10 μM is that CH-j […] for 4 h affected the level of H2O2 in MCF-7, GBC-823, Hep G2 and Liver.
FIG. 1-3: CH-j/BA-j affects the levels of H2O2 in blood cells, X-coordinate is the concentration of CH-j/BA-j concentration (μM), and Y-coordinate the intracellular levels of H2O2 (μM) for 4 h with PF1-H2O2 10 μM by Fluorescence Microplater Reader (488 nm/525 nm).

H-460 = test: Anti-cancer cells proliferation activity (MTT, 48 h); assay type: cell-based; settings: Homo sapiens, NCI-H460, H-460, MTT
Excerpt: (§2) Anti-cancer cells proliferationactivity of in vitro CH-j and CH-f were shown in TABLE 2 for the results of the screening of 5 cancers cells.

Hep G2 = test: as above; assay type: cell-based; settings: Homo sapiens, HepG2
Excerpt: as §2

MCF-7 = test: as above; assay type: cell-based; settings: Homo sapiens, MCF7, MCF-7, MTT
Excerpt: as §2

PC-3 = test: as above; assay type: cell-based; settings: Homo sapiens, PC-3, MTT
Excerpt: as §2

[3] = system: 5 cancers cells (MCF-7, H-460, BGC-823, PC-3, Hep G2); test: Anti-cancer cells proliferation activity, average of 5 cancer cells; assay type: cell-based; settings: for IC50: average of 5 cancer cells
Excerpt: as §2

HIF-1β = HIF-1β expression in BGC-823, immune-printing; assay type: cell-based; settings: 0, 2.5, 5, 10 μM for 1 h, then insulin
Method: BGC-823 was treated with 0, 2.5, 5, 10 μM CH-j for 1 h, then the 2 μM insulin was added, and 2 h were cultured, and the cells were collected and lysed.
FIG. 4: CH-j effect on the HIF-1 of BGC-823 was treated with 0, 2.5, 5, 10 μM CH-j for 1 h, then added 0.2 μM insulin culture for 24 h, and the HIF-1α and HIF-1β were determined by the immune imprinting method.

[4] = Pharmacokinetics by oral in monkey (urine drug concentration-time curve); assay type: in vivo; settings: for Tmax: po
Method: Chromatographic conditions and the system applies: with C18 chromatographic column (acid the tall secretory effect, 5 μm, 4.6*150 mm), in acetonitrile-methanol-water-mesylate (25:20:55:0.15) as mobile phase, detection UV 283 nm, the velocity 1 ml/min, and the sample volume 20 μl. The theoretical plate number is not less than 2000 according to CH-j peak.
Sample solution: after the macaques were drugged, the catheter was inserted. The urine by oral CH-j 5 mg/kg is collected, added the methanol at 1:4 (v:v), centrifuge and remove the liquid to measure. Control solution is CH-j methanol solution 5 μg/ml. The log P of CH-j is larger, the fat solubility strong, and absorption distribution in the body very rapid, the urine drug concentration-time curve consistent with the typical two-compartment model. Tmax1, 1.3 h, Cmax1 is […]. […] The apparent distribution volume (Vd) 42 L, mainly distributed in body fluid (BA-j Vd 12.6 L, mainly distributed in blood. See Fitoterapia, 2015, 107: 36-34)
FIG. 5: The concentration of urine drug concentration-time curve in monkey (n=6) by CH-j oral 5 mg/kg, X-coordinate is oral CH-j time (h) and Y-coordinate is the concentration of CH-j (μM).

H-460 xenograft = H-460 xenograft in BALB/c nude mouse; assay type: in vivo; settings: compared with before
Method: The anti-tumor effect of the BALB/c nude mouse model of the non-small cell lung cancer (H-460) was determined by the method [Scientific Reports, 2015, 5: 13626], and the results were shown in FIG. 7. 5 or 10 mg/kg of CH-j, for twice daily 10 days were compared with the control group.
FIG. 7: H-460 carcinoma in male BALB/c nude mice xenograft model, two times a day to fill the stomach to CH-j 5 and 10 mg/kg, for 10 days in a row, X-coordinate is experimental time (days), and Y-coordinate vertical volume of H-460 carcinoma (mm^3).

[5] = oral 5 mg/kg, monkey, urine drug concentration
[6] = oral, monkey (n = 6), 3 mg/kg in Table 4, 5 mg/kg in text

CC(=O)c1c(O)c(CN2CCC(O)CC2)c2oc(-c3ccccc3)cc(=O)c2c1O [CH-j, 6-Acetyl-5,7-dihydroxy-8-(4-hydroxy-piperidin-1-ylmethyl)-2-phenyl-chromen-4-one]
BCS class [1]: BCS II
Solubility in Octanol relative to BA analogue ([1]; CH-j vs BA-j, CH-f vs BA-f, 37° C.): about 6 times
solubility ([1]; organic solvent or mixture, Octanol, 37° C., read-out: Solubility in Octanol): 2420 µg/mL (≈ 5910 µM)
solubility ([1]; pH 1.2, simulated gastric fluid, 0.1M HCl (pH1.2), 37° C., read-out: Solubility): 574 µg/mL (≈ 1400 µM)
solubility ([1]; pH 4.5, aqueous buffer, 0.05M NaAC-HAC buffered solution (pH4.5), 37° C., read-out: Solubility): 528 µg/mL (≈ 1290 µM)
solubility ([1]; pH 6.8, aqueous buffer, PBS (pH6.8), 37° C., read-out: Solubility): 78 µg/mL (≈ 191 µM)
solubility ([1]; water, 37° C., read-out: Solubility in H2O): 56 µg/mL (≈ 137 µM)
Amount of H2O2 released, fold (BGC-823 and Hep G2): about 4 times
Maximum level of H2O2 in cells (BGC-823 and Hep G2; 4 h): 35 to 45 µM
Dose dependence of H2O2 level [2]: no significant dose-dependent manner
IC50 (H-460): 6.5 ± 1.13 µM
IC50 (Hep G2): 6 ± 1.5 µM
IC50 (MCF-7): 5.7 ± 1.24 µM
IC50 (PC-3): 6.2 ± 1.16 µM
Anti-proliferative activity, times stronger than BA-j [3]: 2 times
Anti-proliferative activity, times stronger than Chrysin [3]: 5 times
IC50 [3]: 2.6 µg/mL
IC50 ([3]; MTT, 48 h): 6.3 µM
HIF-1β expression (HIF-1β): without affecting the expression of HIF-1β
Maximum drug concentration, times higher than Chrysin ([4]; monkey, in vivo): about 40 times
Cmax1 [4, 5]: 26.4 µM
Cmax2, redistributive period [4, 5]: 13.2 µM
V d [4, 6]: 42 L
t1/2β [4, 6]: 6.2 h
Tmax ([4]; rhesus, monkey, urine, monkey (n = 6), 3 mg/kg in Table 4, 5 mg/kg in text, read-out: T max (Tmax1)): 1.3 h
Tmax ([4]; rhesus, monkey, urine, monkey (n = 6), 3 mg/kg in Table 4, 5 mg/kg in text, read-out: T max, redistributive period (Tmax2)): 9 h
concentration at 24 h ([4]; rhesus, urine, oral 5 mg/kg, monkey): < 3 µM
Cmax ([4]; rhesus, urine, oral, monkey (n = 6), 3 mg/kg in Table 4, 5 mg/kg in text): 26.4 µM
Reduction rate of H-460 tumor (H-460 xenograft; 5 mg/kg twice daily 10 days): 90.5%±9.2%
Reduction rate of H-460 tumor (H-460 xenograft; 10 mg/kg twice daily 10 days): 95.2%±11.6%
